Source: ChEMBL document CHEMBL1201862, “PubChem BioAssay data set” (2004)
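Following 48 hours of exposure in 96-well plates, responses at five concentrations were used to interpolate endpoints linearly. At the GI50, growth is halved.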 Calls of active or inactive are those of the source. Cut-off read from the data, not from the text of the source: active = GI50 up to about 1.1 µM and inactive = higher.

Legend:
Test in all cases: NCI-60 cell line screen, 48 h
[1] = test system: KM12
[2] = test system: PC-3
[3] = test system: SW-620
[4] = test system: UACC-257
[5] = test system: HOP-62
[6] = test system: A549
[7] = test system: MOLT-4
[8] = test system: BT-549
[9] = test system: LOX IMVI
[10] = test system: NCI-H522
[11] = test system: HCT-116
[12] = test system: EKVX
[13] = test system: NCI-H226
[14] = test system: NCI/ADR-RES
[15] = test system: OVCAR-4
[16] = test system: SR
[17] = test system: RXF 393
[18] = test system: CCRF-CEM
[19] = test system: M14
[20] = test system: MDA-MB-435
[21] = test system: UO-31
[22] = test system: MDA-MB-231
[23] = test system: A498
[24] = test system: SNB-75
[25] = test system: SN12C
[26] = test system: RPMI-8226
[27] = test system: SK-MEL-2
[28] = test system: SK-MEL-5
[29] = test system: SF-295
[30] = test system: HOP-92
[31] = test system: Hs-578T
[32] = test system: T47D
[33] = test system: IGROV-1
[34] = test system: UACC-62
[35] = test system: U-251
[36] = test system: SF-539
[37] = test system: HCC 2998
[38] = test system: 786-0
[39] = test system: SNB-19
[40] = test system: Malme-3M
[41] = test system: OVCAR-3
[42] = test system: CAKI-1
[43] = test system: DU-145
[44] = test system: K562
[45] = test system: SF-268
[46] = test system: HL-60
[47] = test system: OVCAR-5
[48] = test system: HCT-15
[49] = test system: NCI-H23
[50] = test system: MCF7
[51] = test system: ACHN
[52] = test system: TK-10
[53] = test system: MDA-N
[54] = test system: OVCAR-8
[55] = test system: COLO 205
[56] = test system: NCI-H460
[57] = test system: SK-OV-3
[58] = test system: HT-29
[59] = test system: SK-MEL-28

## CC(C)(C)OC(=O)CCCCCNC(=O)CCCCCNC(=O)CCC(CN(CC(=O)OCc1ccccc1)CC(=O)OCc1ccccc1)N(CC(=O)OCc1ccccc1)CC(=O)OCc1ccccc1 (stereo not drawn)
[1]
  GI50: > 100 µM (inactive)
[2]
  GI50: > 100 µM (inactive)
[3]
  GI50: > 100 µM (inactive)
[4]
  GI50: > 100 µM (inactive)
[5]
  GI50: > 100 µM (inactive)
[6]
  GI50: > 100 µM (inactive)
[7]
  GI50: 20.1 µM (inactive)
[8]
  GI50: > 100 µM (inactive)
[9]
  GI50: > 100 µM (inactive)
[10]
  GI50: > 100 µM (inactive)
[11]
  GI50: > 100 µM (inactive)
[12]
  GI50: > 100 µM (inactive)
[13]
  GI50: > 100 µM (inactive)
[14]
  GI50: > 100 µM (inactive)
[15]
  GI50: > 100 µM (inactive)
[16]
  GI50: 20.5 µM (inactive)
[17]
  GI50: > 100 µM (inactive)
[18]
  GI50: 31.4 µM (inactive)
[19]
  GI50: > 100 µM (inactive)
[20]
  GI50: > 100 µM (inactive)
[21]
  GI50: 71.1 µM (inactive)
[22]
  GI50: > 100 µM (inactive)
[23]
  GI50: > 100 µM (inactive)
[24]
  GI50: 20.2 µM (inactive)
[25]
  GI50: > 100 µM (inactive)
[26]
  GI50: 11.8 µM (inactive)
[27]
  GI50: > 100 µM (inactive)
[28]
  GI50: > 100 µM (inactive)
[29]
  GI50: > 100 µM (inactive)
[30]
  GI50: 32.9 µM (inactive)
[31]
  GI50: > 100 µM (inactive)
[32]
  GI50: > 100 µM (inactive)
[33]
  GI50: > 100 µM (inactive)
[34]
  GI50: > 100 µM (inactive)
[35]
  GI50: > 100 µM (inactive)
[36]
  GI50: > 100 µM (inactive)
[37]
  GI50: > 100 µM (inactive)
[38]
  GI50: > 100 µM (inactive)
[39]
  GI50: > 100 µM (inactive)
[40]
  GI50: > 100 µM (inactive)
[41]
  GI50: > 100 µM (inactive)
[42]
  GI50: 43.8 µM (inactive)
[43]
  GI50: > 100 µM (inactive)
[44]
  GI50: 25.2 µM (inactive)
[45]
  GI50: > 100 µM (inactive)
[46]
  GI50: 61.1 µM (inactive)
[47]
  GI50: > 100 µM (inactive)
[48]
  GI50: > 100 µM
[49]
  GI50: 68.1 µM (inactive)
[50]
  GI50: > 100 µM (inactive)
[51]
  GI50: > 100 µM (inactive)
[52]
  GI50: > 100 µM (inactive)
[53]
  GI50: > 100 µM (inactive)
[54]
  GI50: > 100 µM (inactive)
[55]
  GI50: > 100 µM (inactive)
[56]
  GI50: 14.6 µM (inactive)
[57]
  GI50: > 100 µM (inactive)
[58]
  GI50: > 100 µM (inactive)
[59]
  GI50: > 100 µM (inactive)

## O=[N+]([O-])c1ccc2c(c1)C1=NN(c3ccccc3)C(c3ccccc3Br)C1CCC2 (stereo not drawn)
[1]
  GI50: 16.9 µM (inactive)
[2]
  GI50: 31.2 µM (inactive)
[3]
  GI50: 9.12 µM (inactive)
[4]
  GI50: 19 µM (inactive)
[5]
  GI50: 43.6 µM (inactive)
[6]
  GI50: 28.1 µM (inactive)
[7]
  GI50: 6.97 µM (inactive)
[8]
  GI50: 13.2 µM (inactive)
[9]
  GI50: 19.9 µM (inactive)
[10]
  GI50: 13.3 µM (inactive)
[11]
  GI50: 12.4 µM (inactive)
[12]
  GI50: 20.5 µM (inactive)
[13]
  GI50: 25.5 µM (inactive)
[14]
  GI50: 12.7 µM (inactive)
[15]
  GI50: 19.9 µM (inactive)
[16]
  GI50: 4.05 µM (inactive)
[17]
  GI50: 14.4 µM (inactive)
[18]
  GI50: 2.19 µM (inactive)
[19]
  GI50: 23.2 µM (inactive)
[20]
  GI50: 15 µM (inactive)
[21]
  GI50: 20.6 µM (inactive)
[22]
  GI50: 36.3 µM (inactive)
[23]
  GI50: 12.1 µM (inactive)
[24]
  GI50: 42.8 µM (inactive)
[25]
  GI50: 24.6 µM (inactive)
[26]
  GI50: 6.85 µM (inactive)
[27]
  GI50: 24.7 µM (inactive)
[28]
  GI50: 15.4 µM (inactive)
[29]
  GI50: 17.9 µM (inactive)
[30]
  GI50: 14.6 µM (inactive)
[31]
  GI50: 48.1 µM (inactive)
[32]
  GI50: 10.2 µM (inactive)
[33]
  GI50: 27.5 µM (inactive)
[34]
  GI50: 9.62 µM (inactive)
[35]
  GI50: 25.3 µM (inactive)
[36]
  GI50: 19.1 µM (inactive)
[37]
  GI50: 21.9 µM (inactive)
[38]
  GI50: > 50 µM (inactive)
[39]
  GI50: 25.7 µM (inactive)
[40]
  GI50: 24.8 µM (inactive)
[41]
  GI50: 16.2 µM (inactive)
[42]
  GI50: 23.4 µM (inactive)
[43]
  GI50: 16.3 µM (inactive)
[44]
  GI50: 4.53 µM (inactive)
[45]
  GI50: 21.9 µM (inactive)
[46]
  GI50: 7.64 µM (inactive)
[47]
  GI50: > 50 µM (inactive)
[48]
  GI50: 13.3 µM
[49]
  GI50: 18.7 µM (inactive)
[50]
  GI50: 11.2 µM (inactive)
[51]
  GI50: 22.8 µM (inactive)
[52]
  GI50: 38.2 µM (inactive)
[53]
  GI50: 17.3 µM (inactive)
[54]
  GI50: 22.2 µM (inactive)
[55]
  GI50: 33.7 µM (inactive)
[56]
  GI50: 22.6 µM (inactive)
[57]
  GI50: > 50 µM (inactive)
[58]
  GI50: 16.1 µM (inactive)
[59]
  GI50: 21.1 µM (inactive)
